Measured values: ChEMBL document CHEMBL1201862, “PubChem BioAssay data set” (2004)
The source made the active and inactive calls.

Key:
Cytochrome P450 1A2 = target: T1, Cytochrome P450 1A2 (Homo sapiens, UniProt P05177);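 further: PubChem cytochrome P450 panel assay, CYP1A2 panel member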
T1 sequence (P05177 whole entry): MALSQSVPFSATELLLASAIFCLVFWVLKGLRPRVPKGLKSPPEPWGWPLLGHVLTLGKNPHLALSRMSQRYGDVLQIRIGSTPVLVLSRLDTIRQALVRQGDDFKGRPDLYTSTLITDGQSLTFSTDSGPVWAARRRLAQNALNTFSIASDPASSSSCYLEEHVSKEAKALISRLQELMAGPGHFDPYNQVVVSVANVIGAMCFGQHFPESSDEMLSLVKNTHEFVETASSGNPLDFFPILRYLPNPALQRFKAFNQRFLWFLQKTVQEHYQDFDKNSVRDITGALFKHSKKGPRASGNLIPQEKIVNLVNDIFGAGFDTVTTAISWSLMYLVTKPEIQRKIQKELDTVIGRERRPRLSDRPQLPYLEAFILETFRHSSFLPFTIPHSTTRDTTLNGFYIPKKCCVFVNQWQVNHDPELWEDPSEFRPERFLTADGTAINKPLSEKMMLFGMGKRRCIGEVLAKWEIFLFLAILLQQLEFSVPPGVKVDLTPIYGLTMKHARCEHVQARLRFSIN

[1] = target: T2, Apoptotic protease-activating factor 1 (Homo sapiens, UniProt O14727); type: functional
T2 sequence (O14727 whole entry): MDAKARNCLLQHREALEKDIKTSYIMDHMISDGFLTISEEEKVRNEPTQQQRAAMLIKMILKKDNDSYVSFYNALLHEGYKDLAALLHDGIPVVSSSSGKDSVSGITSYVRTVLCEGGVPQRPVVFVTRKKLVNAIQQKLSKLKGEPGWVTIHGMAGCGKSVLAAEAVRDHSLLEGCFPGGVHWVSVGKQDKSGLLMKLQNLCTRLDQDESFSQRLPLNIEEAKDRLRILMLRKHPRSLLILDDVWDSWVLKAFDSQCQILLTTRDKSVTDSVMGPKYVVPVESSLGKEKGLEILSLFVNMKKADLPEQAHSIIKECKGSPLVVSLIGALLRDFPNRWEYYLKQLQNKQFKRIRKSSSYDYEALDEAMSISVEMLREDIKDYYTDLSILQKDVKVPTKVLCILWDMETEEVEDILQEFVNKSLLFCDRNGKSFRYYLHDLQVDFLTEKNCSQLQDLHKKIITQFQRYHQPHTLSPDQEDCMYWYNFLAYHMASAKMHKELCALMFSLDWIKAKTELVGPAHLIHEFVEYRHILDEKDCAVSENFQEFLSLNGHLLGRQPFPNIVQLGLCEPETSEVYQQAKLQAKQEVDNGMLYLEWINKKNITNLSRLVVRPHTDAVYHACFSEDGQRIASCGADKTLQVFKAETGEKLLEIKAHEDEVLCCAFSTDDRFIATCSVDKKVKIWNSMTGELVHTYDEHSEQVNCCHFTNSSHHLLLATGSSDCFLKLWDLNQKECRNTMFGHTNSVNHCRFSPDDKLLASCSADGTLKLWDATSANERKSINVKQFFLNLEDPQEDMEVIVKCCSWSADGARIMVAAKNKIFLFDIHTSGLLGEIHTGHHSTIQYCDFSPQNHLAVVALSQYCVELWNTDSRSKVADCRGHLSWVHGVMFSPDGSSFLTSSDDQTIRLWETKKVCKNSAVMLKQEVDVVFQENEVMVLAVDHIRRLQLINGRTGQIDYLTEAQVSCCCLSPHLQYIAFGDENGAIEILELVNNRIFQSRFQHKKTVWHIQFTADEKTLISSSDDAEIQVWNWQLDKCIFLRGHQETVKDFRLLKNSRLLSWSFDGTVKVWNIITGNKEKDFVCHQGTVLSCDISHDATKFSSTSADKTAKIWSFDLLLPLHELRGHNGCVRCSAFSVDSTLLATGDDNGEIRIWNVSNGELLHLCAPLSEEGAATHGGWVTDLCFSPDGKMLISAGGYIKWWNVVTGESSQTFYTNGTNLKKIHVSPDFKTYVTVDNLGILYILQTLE

Cytochrome P450 3A4 [2] = target: T3, Cytochrome P450 3A4 (Homo sapiens, UniProt P08684)
Estrogen receptor beta = Estrogen receptor beta (Homo sapiens, UniProt Q92731);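 further: recombinant ER-beta bound to coactivator SRC1 peptide in presence of estradiol agonist; inhibitors block coactivator peptide binding and lower the FRET signal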
[3] = target: Glyceraldehyde-3-phosphate dehydrogenase (Homo sapiens, UniProt P04406)
H4 = assay: Luminescence Cell-Based Dose Response HTS to Identify Activators of 5'UTR Stem-Loop Driven Prion Protein mRNA Translation in H4 Neuroglioblastoma Cells. [Related pubchem assays: 1829 (Project Summary), 1814 (Primary HTS)]; type: functional; settings: Homo sapiens
[4] = Luminescence Cell-Based Dose Response HTS to Identify Activators of Luciferase Translation or Activity in H4 […] Cells. [Related pubchem assays: 1829 (Project Summary), 1814 (Primary HTS)]; type: functional
[5] = target: Induced myeloid leukemia cell differentiation protein Mcl-1 (Homo sapiens, UniProt Q07820); type: functional
[6] = NIH3T3 cell viability loss – ATP luminescence, mouse fibroblasts, counter-screen, dose response (AID 2010); type: functional, cell-based;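 further: cells exposed to compound for about 90 hours before reading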
[7] = Trypanosoma cruzi growth suppression in host cells – NIH3T3 host cells, beta-gal luminescence, confirmation (AID 2044); type: functional, cell-based;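 further: intracellular parasites grown in NIH/3T3 mouse fibroblasts as host cells; luminescent beta-galactosidase reporter signal from transgenic T. cruzi replicating inside host cells; inhibitors lower the luminescence signal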
BJ [8] = assay: cells; type: functional, cell-based; settings: Homo sapiens
Streptokinase A = target: T4, Streptokinase A (Streptococcus pyogenes serotype M1, UniProt P10520); assay: viability-normalized secreted streptokinase activity reduction – plasminogen activation absorbance, OD405, dose response (AID 1914); type: functional, Streptococcus pyogenes M1 GAS;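 further: secreted streptokinase activity via plasminogen activation per viability signal from cell pellet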
T4 sequence (P10520 whole entry): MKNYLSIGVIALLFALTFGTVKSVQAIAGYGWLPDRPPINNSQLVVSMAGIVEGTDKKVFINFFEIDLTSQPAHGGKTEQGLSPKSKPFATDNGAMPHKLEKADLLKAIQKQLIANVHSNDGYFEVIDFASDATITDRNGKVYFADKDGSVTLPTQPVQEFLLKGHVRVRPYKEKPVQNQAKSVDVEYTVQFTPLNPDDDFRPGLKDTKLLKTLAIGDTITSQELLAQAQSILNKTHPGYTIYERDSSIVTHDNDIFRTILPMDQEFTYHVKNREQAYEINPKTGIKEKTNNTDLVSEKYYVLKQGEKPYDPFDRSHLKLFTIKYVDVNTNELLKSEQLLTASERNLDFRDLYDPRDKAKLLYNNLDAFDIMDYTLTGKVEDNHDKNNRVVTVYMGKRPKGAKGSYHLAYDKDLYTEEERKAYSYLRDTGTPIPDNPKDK

[9] = system: Streptococcus sp. 'group A'; assay: Streptococcus pyogenes SK(-)GAS viability under kanamycin – luminescence, BacTiterGlo, confirmation, counter-screen for streptokinase expression inhibitor project, dose response (AID 1900); type: functional, organism-based
[10] = NIH-3T3 fibroblast cytotoxicity, dose response, cytotoxicity control, cell-based, fluorescence, Alamar Blue, secondary assay (AID 2327); type: functional;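 further: NIH-3T3 mouse fibroblasts cultured with fluconazole at 8 µg/mL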
[11] = target: Heat shock protein HSP 90-alpha (Homo sapiens, UniProt P07900); type: functional, organism-based
[12] = DRD fibroblast viability loss – cell-based, non-viral oncogenic, luminescence, dose response (AID 1934); type: functional; settings: Homo sapiens
BJ [13] = assay: BJ-TERT fibroblast viability loss – cell-based, RAS-independent, luminescence, dose response (AID 1933); type: functional; settings: Homo sapiens
INS1 = assay: INS-1E survival protection against cytokine death – cell-based, luminescence, retest, dose response (AID 449756); type: functional; settings: Rattus norvegicus;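 further: cell death triggered by IL-1 beta plus TNF-alpha plus IFN-gamma mixture; protective hits raise ATP signal compared with cytokine alone wells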
Large T antigen = Large T antigen (Simian virus 40, UniProt P03070); type: functional, Betapolyomavirus macacae;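 further: Confirmatory-stage PubChem screen for compounds that inhibit SV40 T antigen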
Streptococcus = assay: GAS UMAA2166 growth inhibition – luminescence, BacTiterGlo, counter-screen for streptokinase expression inhibitor project, dose response (AID 1915); type: functional, organism-based;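 further: potency for reduction of bacterial viability or growth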
Cytochrome P450 3A4 [14] = target: T3, Cytochrome P450 3A4; settings: Potency
[15] = target: T5, Histone-lysine N-methyltransferase NSD2 (Homo sapiens, UniProt O96028); type: biochemical
T5 sequence (O96028 whole entry): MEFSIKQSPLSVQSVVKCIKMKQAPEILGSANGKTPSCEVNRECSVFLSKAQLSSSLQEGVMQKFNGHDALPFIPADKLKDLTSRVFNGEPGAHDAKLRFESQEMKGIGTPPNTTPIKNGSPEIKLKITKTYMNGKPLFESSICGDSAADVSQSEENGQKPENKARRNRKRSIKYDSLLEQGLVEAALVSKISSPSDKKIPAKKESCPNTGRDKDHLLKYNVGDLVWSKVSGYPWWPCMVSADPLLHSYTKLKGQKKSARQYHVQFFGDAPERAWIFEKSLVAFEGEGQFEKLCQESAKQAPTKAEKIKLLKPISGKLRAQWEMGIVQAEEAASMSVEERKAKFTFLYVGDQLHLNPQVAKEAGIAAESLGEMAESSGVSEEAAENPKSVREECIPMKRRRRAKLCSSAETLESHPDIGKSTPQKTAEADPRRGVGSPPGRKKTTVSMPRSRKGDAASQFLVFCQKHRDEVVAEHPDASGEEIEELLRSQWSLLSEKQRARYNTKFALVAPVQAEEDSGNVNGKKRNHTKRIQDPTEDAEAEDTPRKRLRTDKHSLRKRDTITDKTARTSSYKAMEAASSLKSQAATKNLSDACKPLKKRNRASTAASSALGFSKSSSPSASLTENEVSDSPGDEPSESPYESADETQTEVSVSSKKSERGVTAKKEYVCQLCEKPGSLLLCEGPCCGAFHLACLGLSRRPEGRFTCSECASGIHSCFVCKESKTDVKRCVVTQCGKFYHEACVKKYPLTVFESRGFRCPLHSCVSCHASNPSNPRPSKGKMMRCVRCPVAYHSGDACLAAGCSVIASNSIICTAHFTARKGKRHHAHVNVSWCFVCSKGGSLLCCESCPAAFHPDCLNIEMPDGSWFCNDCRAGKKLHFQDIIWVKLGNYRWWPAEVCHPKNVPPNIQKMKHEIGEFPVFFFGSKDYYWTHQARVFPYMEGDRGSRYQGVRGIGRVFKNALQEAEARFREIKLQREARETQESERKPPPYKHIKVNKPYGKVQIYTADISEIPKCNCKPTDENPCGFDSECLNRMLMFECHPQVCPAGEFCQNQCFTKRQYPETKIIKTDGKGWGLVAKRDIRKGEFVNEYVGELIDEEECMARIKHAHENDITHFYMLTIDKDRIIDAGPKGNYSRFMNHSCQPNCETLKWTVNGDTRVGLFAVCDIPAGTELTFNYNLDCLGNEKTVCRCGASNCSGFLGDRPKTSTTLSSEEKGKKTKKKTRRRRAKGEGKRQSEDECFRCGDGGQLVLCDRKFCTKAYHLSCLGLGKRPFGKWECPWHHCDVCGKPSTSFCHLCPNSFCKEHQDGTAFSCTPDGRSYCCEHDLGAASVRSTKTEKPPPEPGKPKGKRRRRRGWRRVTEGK

[16] = target: FAD-linked sulfhydryl oxidase ALR (Homo sapiens, UniProt P55789); assay: ALR-catalysed DTT oxidation blockers – biochemical, H2O2 detection, luminescence, cherry-pick, dose response (AID 493248)
Genome polyprotein = Genome polyprotein (dengue virus type 2, UniProt P29990); assay: flavivirus cap methylation enzyme inhibition – biochemical, confirmation dose response, primary screen (AID 588689); type: functional
Vero = assay: viability of Vero cells under compound – cytotoxicity control for flavivirus capping enzyme inhibitors (AID 588742); type: functional; settings: Chlorocebus sabaeus

T3 sequence (P08684 whole entry): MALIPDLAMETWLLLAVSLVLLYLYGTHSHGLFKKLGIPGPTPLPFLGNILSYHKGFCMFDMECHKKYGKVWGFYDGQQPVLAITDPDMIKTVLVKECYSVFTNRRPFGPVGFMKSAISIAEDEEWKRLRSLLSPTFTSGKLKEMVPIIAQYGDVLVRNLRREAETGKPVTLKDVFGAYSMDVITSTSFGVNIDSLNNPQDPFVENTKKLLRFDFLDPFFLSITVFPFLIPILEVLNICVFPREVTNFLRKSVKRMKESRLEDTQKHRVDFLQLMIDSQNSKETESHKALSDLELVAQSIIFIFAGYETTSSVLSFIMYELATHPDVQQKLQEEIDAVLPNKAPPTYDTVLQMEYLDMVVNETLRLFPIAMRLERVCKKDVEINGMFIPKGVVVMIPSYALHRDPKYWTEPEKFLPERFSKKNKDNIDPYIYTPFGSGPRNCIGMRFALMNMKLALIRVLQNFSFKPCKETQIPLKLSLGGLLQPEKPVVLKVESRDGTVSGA
Chain of Glyceraldehyde-3-phosphate dehydrogenase (P04406 whole entry): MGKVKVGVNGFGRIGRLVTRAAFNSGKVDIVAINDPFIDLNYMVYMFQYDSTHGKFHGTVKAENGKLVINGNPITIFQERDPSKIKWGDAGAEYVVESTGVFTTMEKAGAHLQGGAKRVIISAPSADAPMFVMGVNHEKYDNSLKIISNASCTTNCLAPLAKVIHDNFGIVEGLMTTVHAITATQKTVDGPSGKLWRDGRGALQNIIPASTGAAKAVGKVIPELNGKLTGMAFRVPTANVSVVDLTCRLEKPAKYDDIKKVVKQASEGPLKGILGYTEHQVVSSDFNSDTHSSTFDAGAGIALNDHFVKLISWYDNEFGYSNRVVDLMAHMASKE
Chain of Estrogen receptor beta (Q92731 whole entry): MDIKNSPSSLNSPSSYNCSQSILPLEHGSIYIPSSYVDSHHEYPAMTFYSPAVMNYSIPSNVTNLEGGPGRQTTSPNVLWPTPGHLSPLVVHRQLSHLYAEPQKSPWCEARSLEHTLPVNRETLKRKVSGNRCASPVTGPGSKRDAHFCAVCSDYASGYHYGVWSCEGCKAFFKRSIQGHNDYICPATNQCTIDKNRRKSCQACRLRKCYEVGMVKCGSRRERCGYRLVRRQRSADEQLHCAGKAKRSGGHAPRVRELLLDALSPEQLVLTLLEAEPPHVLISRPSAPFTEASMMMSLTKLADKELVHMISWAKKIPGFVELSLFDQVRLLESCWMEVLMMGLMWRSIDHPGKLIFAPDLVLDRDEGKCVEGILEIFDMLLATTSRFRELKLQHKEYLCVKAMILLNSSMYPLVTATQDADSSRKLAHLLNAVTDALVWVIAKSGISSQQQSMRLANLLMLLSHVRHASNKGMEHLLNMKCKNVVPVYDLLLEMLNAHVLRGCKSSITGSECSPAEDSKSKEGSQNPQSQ
Chain of Large T antigen (P03070 whole entry): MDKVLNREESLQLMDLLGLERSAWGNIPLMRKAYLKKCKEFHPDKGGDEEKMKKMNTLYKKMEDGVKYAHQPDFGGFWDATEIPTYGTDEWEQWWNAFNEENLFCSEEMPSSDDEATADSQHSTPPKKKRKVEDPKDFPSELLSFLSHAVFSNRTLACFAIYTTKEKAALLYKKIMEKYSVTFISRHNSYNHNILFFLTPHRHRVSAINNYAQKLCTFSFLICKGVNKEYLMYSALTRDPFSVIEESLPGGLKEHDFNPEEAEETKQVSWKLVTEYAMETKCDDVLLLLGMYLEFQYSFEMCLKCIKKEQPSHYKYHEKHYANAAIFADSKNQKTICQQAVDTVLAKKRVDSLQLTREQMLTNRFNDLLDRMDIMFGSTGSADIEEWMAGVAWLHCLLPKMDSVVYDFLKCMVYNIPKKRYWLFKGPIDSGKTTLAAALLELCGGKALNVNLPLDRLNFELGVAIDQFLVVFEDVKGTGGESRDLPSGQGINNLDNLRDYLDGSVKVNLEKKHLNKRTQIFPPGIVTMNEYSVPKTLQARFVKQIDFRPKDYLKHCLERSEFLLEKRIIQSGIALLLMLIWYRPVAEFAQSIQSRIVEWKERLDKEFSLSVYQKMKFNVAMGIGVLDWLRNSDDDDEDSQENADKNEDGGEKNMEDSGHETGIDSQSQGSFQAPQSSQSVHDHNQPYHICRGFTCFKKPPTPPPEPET
Chain of FAD-linked sulfhydryl oxidase ALR (P55789 whole entry): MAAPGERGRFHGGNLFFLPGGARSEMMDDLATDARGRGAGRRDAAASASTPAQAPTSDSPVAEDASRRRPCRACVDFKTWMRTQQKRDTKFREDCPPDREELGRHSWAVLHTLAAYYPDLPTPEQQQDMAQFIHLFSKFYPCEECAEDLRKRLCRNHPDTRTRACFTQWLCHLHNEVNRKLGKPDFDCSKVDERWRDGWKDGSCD
Chain of Genome polyprotein (P29990 2492-3391 limits assumed): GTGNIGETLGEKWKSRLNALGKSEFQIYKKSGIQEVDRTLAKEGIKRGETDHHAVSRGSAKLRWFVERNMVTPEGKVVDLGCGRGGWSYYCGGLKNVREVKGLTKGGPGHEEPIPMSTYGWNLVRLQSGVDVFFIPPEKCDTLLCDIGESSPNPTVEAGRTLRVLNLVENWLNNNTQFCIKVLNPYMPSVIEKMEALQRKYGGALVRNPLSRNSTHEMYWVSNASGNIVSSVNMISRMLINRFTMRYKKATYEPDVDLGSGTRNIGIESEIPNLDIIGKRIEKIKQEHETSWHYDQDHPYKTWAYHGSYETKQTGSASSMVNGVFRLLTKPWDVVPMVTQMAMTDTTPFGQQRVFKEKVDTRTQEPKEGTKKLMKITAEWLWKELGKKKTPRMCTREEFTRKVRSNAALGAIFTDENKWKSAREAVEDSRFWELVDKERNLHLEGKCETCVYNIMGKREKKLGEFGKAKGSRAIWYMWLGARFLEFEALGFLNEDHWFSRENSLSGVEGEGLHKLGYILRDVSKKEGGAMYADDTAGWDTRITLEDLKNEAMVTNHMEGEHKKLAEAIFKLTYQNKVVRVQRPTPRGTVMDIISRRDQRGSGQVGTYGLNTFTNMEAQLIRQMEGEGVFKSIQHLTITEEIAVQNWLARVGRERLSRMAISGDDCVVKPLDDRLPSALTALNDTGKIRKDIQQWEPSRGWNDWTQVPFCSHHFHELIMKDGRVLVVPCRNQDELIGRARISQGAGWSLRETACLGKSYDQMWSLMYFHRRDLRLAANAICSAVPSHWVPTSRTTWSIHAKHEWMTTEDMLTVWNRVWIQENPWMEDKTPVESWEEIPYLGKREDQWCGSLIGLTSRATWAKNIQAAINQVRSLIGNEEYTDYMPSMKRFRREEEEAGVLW
Chain of Induced myeloid leukemia cell differentiation protein Mcl-1 (Q07820 whole entry): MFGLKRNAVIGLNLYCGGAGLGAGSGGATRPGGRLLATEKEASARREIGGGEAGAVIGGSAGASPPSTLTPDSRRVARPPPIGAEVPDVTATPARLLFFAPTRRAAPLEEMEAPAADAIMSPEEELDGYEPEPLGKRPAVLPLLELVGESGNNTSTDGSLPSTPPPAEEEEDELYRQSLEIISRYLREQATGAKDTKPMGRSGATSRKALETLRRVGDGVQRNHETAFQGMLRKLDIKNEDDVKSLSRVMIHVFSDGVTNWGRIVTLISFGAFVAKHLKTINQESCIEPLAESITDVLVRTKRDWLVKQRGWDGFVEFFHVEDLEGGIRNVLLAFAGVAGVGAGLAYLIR

## COC(=O)c1ccccc1-c1ccc(/C=C2\C(=O)N(c3ccccc3)N=C2c2ccccc2)o1
Cytochrome P450 1A2
  AC50: 5.01 µM (inconclusive)
[1]
  IC50: 28.9 µM (active)
Cytochrome P450 3A4 [2]
  AC50: 2.82 µM (inconclusive)

## CC(=O)Nc1ccc(N2CCN(C(C)=O)CC2)cc1
Estrogen receptor beta
  IC50: > 50 µM (not active)

## CC1CC(C)(C)NCCNC(C)CC(C)(C)NCCN1 (centres undefined)
[3]
  IC50: > 10 µM (inconclusive)

## Cc1ccc2nc(-c3ccc(NC(=O)CN4CCN(c5ccccn5)CC4)cc3)sc2c1
H4
  EC50: 44.3 µM (active)
[4]
  EC50: 9.19 µM (active)

## Brc1ccc(C2Nc3cccc4cccc(c34)N2)s1
[5]
  IC50: 9.46 µM (active)

## COC(=O)c1ccc(CC(=O)c2c(C)cc(O)cc2O)o1
Estrogen receptor beta
  IC50: 15 µM (active)

## CCCCCc1ccc(OCCC[n+]2ccccc2)c(CCCCC)c1
[6]
  EC50: > 60 µM (not active)
[1]
  IC50: 84.9 µM (active)
[7]
  EC50: 0.122 µM (active)

## O=C(/C=C/c1cccc(Cl)c1)c1ccc([N+](=O)[O-])o1
BJ [8]
  EC50: 9.18 µM (inconclusive)
Streptokinase A
  EC50: 3.36 µM (active)
[9]
  EC50: 3.18 µM (active)
[10]
  EC50: 4.56 µM (inconclusive)
[11]
  AC50: 1.28 µM (active)
[12]
  EC50: 2.5 µM (inconclusive)
BJ [13]
  EC50: > 150 µM (inconclusive)
INS1
  AC50: 2.31 µM (active)
Large T antigen
  IC50: 40.9 µM (active)
Streptococcus
  EC50: 6.98 µM (active)

## Oc1cc(Cl)c(Cl)c(Cl)c1Cl
[11]
  AC50: 2.06 µM (active)
Cytochrome P450 3A4 [14]
  AC50: 12.6 µM (inconclusive)

## O=C(COc1ccccc1Cl)c1ccc2c(c1)CCCC2
H4
  EC50: 10 µM (active)
[4]
  EC50: 16.7 µM (active)

## COc1ccc(S(=O)(=O)N2CCN(CC(=O)c3ccc(O)c(O)c3)CC2)cc1
[15]
  AC50: 5.33 µM (active)
[16]
  AC50: 2.33 µM (active)

## CC1(C)C[C@@H]2C(=O)CCC3O[C@@]3(C)CCC21 (some centres undefined)
Cytochrome P450 3A4 [14]
  AC50: 12.6 µM (inconclusive)

## NC1=NC(=O)/C(=C/c2ccc(-c3cc([N+](=O)[O-])ccc3Cl)o2)S1
[3]
  IC50: > 100 µM (not active)

## CCCn1c(-c2ccc(F)cc2)nc2c(NCCN(CC)CC)nc(C)nc21
Cytochrome P450 3A4 [14]
  AC50: 15.8 µM (inconclusive)

## O=C1C(O)=CC(=C(c2ccccc2)c2ccccc2)c2ccccc21
Genome polyprotein
  IC50: > 100 µM (active)
Vero
  CC50: > 40 µM (active)

## COC1=CC(=O)C(C(=O)c2ccccc2)=CC1=O [2-BENZOYL-5-METHOXYBENZOQUINONE]
Cytochrome P450 3A4 [14]
  AC50: 10 µM (inconclusive)

## COc1cc(O)cc(OC)c1OC [ANTIAROL]
Cytochrome P450 3A4 [14]
  AC50: 31.6 µM (inconclusive)

## CCCc1cc(=O)oc2c3c(c4c(c12)OC(C)(C)C=C4)O[C@H](C)[C@@H](C)[C@@H]3O [CALANOLIDE A]
[6]
  EC50: 4.87 µM (active)
[1]
  IC50: 20.3 µM (active)
[7]
  EC50: 2.28 µM (active)

## O=C(CC(=O)c1ccccc1)c1ccccc1 [DIBENZOYLMETHANE]
Cytochrome P450 3A4 [14]
  AC50: 12.6 µM (inconclusive)
